# Test results: PubChem BioAssay AID1259407 (Chemical Carcinogenesis Research Information System (CCRIS), 2018)
# Calls of active or inactive are those of the source. How the calls were made is not given here.
# Tested on: CCRIS mutagenicity, Ames/micronucleus/aberration tests
# Experiment: CCRIS mutagenicity studies
# [1] = Test System: AMES SALMONELLA TYPHIMURIUM, Strain/Indicator: TA98, Metabolic Activation: HAMSTER, LIVER, S-9, AROCLOR 1254 (10%), Method: PREINCUBATION
# [2] = Test System: AMES SALMONELLA TYPHIMURIUM, Strain/Indicator: TA98, Metabolic Activation: RAT, LIVER, S-9, AROCLOR 1254 (10%), Method: PREINCUBATION
# [3] = Test System: AMES SALMONELLA TYPHIMURIUM, Strain/Indicator: TA100, Metabolic Activation: HAMSTER, LIVER, S-9, AROCLOR 1254 (10%), Method: PREINCUBATION
# [4] = Test System: AMES SALMONELLA TYPHIMURIUM, Strain/Indicator: TA100, Metabolic Activation: RAT, LIVER, S-9, AROCLOR 1254 (10%), Method: PREINCUBATION
# [5] = Test System: AMES SALMONELLA TYPHIMURIUM, Strain/Indicator: TA1535, Metabolic Activation: HAMSTER, LIVER, S-9, AROCLOR 1254 (10%), Method: PREINCUBATION
# [6] = Test System: AMES SALMONELLA TYPHIMURIUM, Strain/Indicator: TA1535, Metabolic Activation: NONE, Method: PREINCUBATION
# [7] = Test System: AMES SALMONELLA TYPHIMURIUM, Strain/Indicator: TA1535, Metabolic Activation: RAT, LIVER, S-9, AROCLOR 1254 (10%), Method: PREINCUBATION
# [8] = Test System: AMES SALMONELLA TYPHIMURIUM, Strain/Indicator: TA1537, Metabolic Activation: HAMSTER, LIVER, S-9, AROCLOR 1254 (10%), Method: PREINCUBATION
# [9] = Test System: AMES SALMONELLA TYPHIMURIUM, Strain/Indicator: TA1537, Metabolic Activation: NONE, Method: PREINCUBATION
# [10] = Test System: AMES SALMONELLA TYPHIMURIUM, Strain/Indicator: TA1537, Metabolic Activation: RAT, LIVER, S-9, AROCLOR 1254 (10%), Method: PREINCUBATION
# [11] = Test System: AMES SALMONELLA TYPHIMURIUM, Strain/Indicator: TA98, Metabolic Activation: NONE, Method: STANDARD PLATE
# [12] = Test System: AMES SALMONELLA TYPHIMURIUM, Strain/Indicator: TA100, Metabolic Activation: RAT, LIVER, S-9, AROCLOR 1254, Method: STANDARD PLATE
structure (smiles),measurement,setting,value
O=C1OC(=O)c2ccccc21,mutagenic call,"End Point: IN VITRO CHROMOSOMAL ABERRATIONS, Test System: CHINESE HAMSTER OVARY CELLS, Metabolic Activation: NONE",inactive; negative
same,mutagenic call,"End Point: IN VITRO CHROMOSOMAL ABERRATIONS, Test System: CHINESE HAMSTER OVARY CELLS, Metabolic Activation: RAT, LIVER, S-9, AROCLOR 1254",inactive; negative
same,mutagenic call,"End Point: IN VITRO CHROMOSOMAL ABERRATIONS, Test System: CHO CELLS, Metabolic Activation: NONE",active; positive; precipitation occurred at 10 mm
same,mutagenic call,[1],inactive; negative
same,mutagenic call,"Test System: AMES SALMONELLA TYPHIMURIUM, Strain/Indicator: TA98, Metabolic Activation: NONE, Method: PREINCUBATION",inactive; negative
same,mutagenic call,"Test System: AMES SALMONELLA TYPHIMURIUM, Strain/Indicator: TA98, Metabolic Activation: RAT LIVER S-9, PHENOBARBITAL AND BETA-NAPHTHOFLAVONE, Method: PREINCUBATION",inactive; negative
same,mutagenic call,[2],inactive; negative
same,mutagenic call,[3],inactive; negative
same,mutagenic call,"Test System: AMES SALMONELLA TYPHIMURIUM, Strain/Indicator: TA100, Metabolic Activation: NONE, Method: PREINCUBATION",inactive; negative
same,mutagenic call,"Test System: AMES SALMONELLA TYPHIMURIUM, Strain/Indicator: TA100, Metabolic Activation: RAT LIVER S-9, PHENOBARBITAL AND BETA-NAPHTHOFLAVONE, Method: PREINCUBATION",inactive; negative
same,mutagenic call,[4],inactive; negative
same,mutagenic call,[5],inactive; negative
same,mutagenic call,[6],inactive; negative
same,mutagenic call,"Test System: AMES SALMONELLA TYPHIMURIUM, Strain/Indicator: TA1535, Metabolic Activation: RAT LIVER S-9, PHENOBARBITAL AND BETA-NAPHTHOFLAVONE, Method: PREINCUBATION",inactive; negative
same,mutagenic call,[7],inactive; negative
same,mutagenic call,[8],inactive; negative
same,mutagenic call,[9],inactive; negative
same,mutagenic call,"Test System: AMES SALMONELLA TYPHIMURIUM, Strain/Indicator: TA1537, Metabolic Activation: RAT LIVER S-9, PHENOBARBITAL AND BETA-NAPHTHOFLAVONE, Method: PREINCUBATION",inactive; negative
same,mutagenic call,[10],inactive; negative
same,mutagenic call,"Test System: E.COLI, Strain/Indicator: WP2UVRA, Metabolic Activation: NONE, Method: PREINCUBATION",inactive; negative
same,mutagenic call,"Test System: E.COLI, Strain/Indicator: WP2UVRA, Metabolic Activation: RAT LIVER S-9, PHENOBARBITAL AND BETA-NAPHTHOFLAVONE, Method: PREINCUBATION",inactive; negative
O=C1N=NC(=O)C2C=CC=CC12 (stereo not drawn),mutagenic call,"Test System: AMES SALMONELLA TYPHIMURIUM, Strain/Indicator: TA98, Metabolic Activation: HAMSTER, LIVER, S-9, AROCLOR 1254, Method: STANDARD PLATE",inactive; negative
same,mutagenic call,[11],inactive; negative
same,mutagenic call,"Test System: AMES SALMONELLA TYPHIMURIUM, Strain/Indicator: TA98, Metabolic Activation: RAT, LIVER, S-9, AROCLOR 1254, Method: STANDARD PLATE",inactive; negative
same,mutagenic call,"Test System: AMES SALMONELLA TYPHIMURIUM, Strain/Indicator: TA100, Metabolic Activation: HAMSTER, LIVER, S-9, AROCLOR 1254, Method: STANDARD PLATE",inactive; negative
same,mutagenic call,"Test System: AMES SALMONELLA TYPHIMURIUM, Strain/Indicator: TA100, Metabolic Activation: NONE, Method: STANDARD PLATE",inactive; negative
same,mutagenic call,[12],inactive; negative
same,mutagenic call,"Test System: AMES SALMONELLA TYPHIMURIUM, Strain/Indicator: TA1535, Metabolic Activation: HAMSTER, LIVER, S-9, AROCLOR 1254, Method: STANDARD PLATE",inactive; negative
same,mutagenic call,"Test System: AMES SALMONELLA TYPHIMURIUM, Strain/Indicator: TA1535, Metabolic Activation: NONE, Method: STANDARD PLATE",inactive; negative
same,mutagenic call,"Test System: AMES SALMONELLA TYPHIMURIUM, Strain/Indicator: TA1535, Metabolic Activation: RAT, LIVER, S-9, AROCLOR 1254, Method: STANDARD PLATE",inactive; negative
same,mutagenic call,"Test System: AMES SALMONELLA TYPHIMURIUM, Strain/Indicator: TA1537, Metabolic Activation: HAMSTER, LIVER, S-9, AROCLOR 1254, Method: STANDARD PLATE",inactive; negative
same,mutagenic call,"Test System: AMES SALMONELLA TYPHIMURIUM, Strain/Indicator: TA1537, Metabolic Activation: NONE, Method: STANDARD PLATE",inactive; negative
same,mutagenic call,"Test System: AMES SALMONELLA TYPHIMURIUM, Strain/Indicator: TA1537, Metabolic Activation: RAT, LIVER, S-9, AROCLOR 1254, Method: STANDARD PLATE",inactive; negative
same,mutagenic call,"Test System: AMES SALMONELLA TYPHIMURIUM, Strain/Indicator: TA1538, Metabolic Activation: HAMSTER, LIVER, S-9, AROCLOR 1254, Method: STANDARD PLATE",inactive; negative
same,mutagenic call,"Test System: AMES SALMONELLA TYPHIMURIUM, Strain/Indicator: TA1538, Metabolic Activation: NONE, Method: STANDARD PLATE",inactive; negative
same,mutagenic call,"Test System: AMES SALMONELLA TYPHIMURIUM, Strain/Indicator: TA1538, Metabolic Activation: RAT, LIVER, S-9, AROCLOR 1254, Method: STANDARD PLATE",inactive; negative
same,mutagenic call,"Test System: Mouse lymphoma, Strain/Indicator: L5178Y (tk+/tk-), Metabolic Activation: None, Method: Suspension/plate",inactive; negative
same,mutagenic call,"Test System: Mouse lymphoma, Strain/Indicator: L5178Y (tk+/tk-), Metabolic Activation: Rat, liver, S-9, Aroclor 1254, Method: Suspension/plate",active; positive
CCCCc1oc2ccccc2c1C(=O)c1cc(I)c(OCCN(CC)CC)c(I)c1,mutagenic call,"End Point: In vivo chromosomal aberrations, Test System: Bone marrow cells, Species: Rat, Strain/Sex: SHR (spontaneously hypertensive)/Female, Route: Oral",inactive; negative
same,mutagenic call,"End Point: In vivo chromosomal aberrations, Test System: Bone marrow cells, Species: Rat, Strain/Sex: Wistar-Kyoto (WKY)/Female, Route: Oral",active; positive
O=C(O)c1ccc([N+](=O)[O-])cc1,mutagenic call,[1],inactive; negative
same,mutagenic call,[11],active; positive
same,mutagenic call,[2],inactive; negative
same,mutagenic call,"Test System: AMES SALMONELLA TYPHIMURIUM, Strain/Indicator: TA98, Metabolic Activation: RAT, LIVER, S-9, KANECHLOR 500, Method: PREINCUBATION",inactive; negative
same,mutagenic call,[3],active; positive
same,mutagenic call,"Test System: AMES SALMONELLA TYPHIMURIUM, Strain/Indicator: TA100, Metabolic Activation: HAMSTER, LIVER, S-9, AROCLOR 1254, FLAVIN MONONUCLEOTIDE, Method: PREINCUBATION",active; positive
same,mutagenic call,"Test System: AMES SALMONELLA TYPHIMURIUM, Strain/Indicator: TA100, Metabolic Activation: HAMSTER, LIVER, S-9, AROCLOR 1254, Method: PREINCUBATION",active; positive
same,mutagenic call,[4],active; positive
same,mutagenic call,"Test System: AMES SALMONELLA TYPHIMURIUM, Strain/Indicator: TA100, Metabolic Activation: RAT, LIVER, S-9, AROCLOR 1254, FLAVIN MONONUCLEOTIDE, Method: PREINCUBATION",active; positive
same,mutagenic call,[12],inactive; negative
same,mutagenic call,"Test System: AMES SALMONELLA TYPHIMURIUM, Strain/Indicator: TA100, Metabolic Activation: RAT, LIVER, S-9, KANECHLOR 500, Method: PREINCUBATION",active; positive
same,mutagenic call,[5],inactive; negative
same,mutagenic call,[6],inactive; negative
same,mutagenic call,[7],inactive; negative
same,mutagenic call,[8],inactive; negative
same,mutagenic call,[9],inactive; negative
same,mutagenic call,[10],inactive; negative
same,mutagenic call,"Test System: AMES SALMONELLA TYPHIMURIUM, Strain/Indicator: TA1538, Metabolic Activation: NONE, Method: PREINCUBATION",active; positive
